Drawing on patent US9994581B2, “Bromodomain inhibitors” (AbbVie Inc., priority 2013, dated 2018), this text covers EC50 and Ki for 23 compounds.

The structures appear in SMILES notation. pEC50, pKi: −log10 of the molar value. Read-outs that look alike come from different tables or passages of the source.

Assay [1] concerns breast cancer cell line MX-1. Kind of assay: MX-1 cell line proliferation assay (3-day, Cell Titer Glo). The class given is cell-based. As to conditions: 72 hours, read-out: Cellular proliferation: EC50. The protocol: The impact of compounds of the Examples on cancer cell proliferation was determined using the breast cancer cell line MX-1 (ATCC) in a 3-day proliferation assay and the data are reported in Table 1. […] For compound testing, MX-1 cells were plated in 96-well black bottom plates at a density of 5000 cells/well in 90 μL of culture media and incubated at 37° overnight to allow cell adhesion and spreading. Compound dilution series were prepared in DMSO via a 3-fold serial dilution from 3 mM to 0.1 μM. The DMSO dilution series were then diluted 1:100 in phosphate buffered saline, and 10 μL of the resulted solution were added to the appropriate wells of the MX-1 cell plate. The final compound concentrations in the wells were 3, 1, 0.3, 0.1, 0.03, 0.01, 0.003, 0.001, 0.0003, and 0.0001 μM, or 1, 0.3, 0.1, 0.03, 0.01, 0.003, 0.001, 0.0003, 0.0001, and 0.00003 μM.
Luminescence readings from the Cell Titer Glo assay were normalized to the DMSO treated cells and analyzed using the GraphPad Prism software with sigmoidal curve fitting to obtain EC50s.

The next assay deals with BRD4 (BDI-BDII_K57-K550) (Homo sapiens, UniProt O60885). Kind of assay: TR-FRET bromodomain binding assay. As to conditions: His-tagged tandem bromodomain, Alexa647-labeled probe; Ki calculated from IC50s, probe Kd and probe concentration. The procedure: A time-resolved fluorescence resonance energy transfer (TR-FRET) assay was used to determine the affinities of compounds of the Examples listed in Table 1 for the tandem domain of bromodomain BRD4. […] An Alexa647-labeled BET-inhibitor was used as the fluorescent probe in the assay.
TR-FRET data were normalized to the means of 24 no-compound controls (“high”) and 8 controls containing 1 μM un-labeled probe (“low”). Percent inhibition was plotted as a function of compound concentration and the data were fit with the 4 parameter logistic equation to obtain IC50s. Inhibition constants (Ki) were calculated from the IC50s, probe Kd and probe concentration. Typical Z′ values were between 0.65 and 0.75.

The term pKi denotes the negative decadic logarithm of the Ki, by convention in mol/L.

As to `CCOC(=O)NS(=O)(=O)N1CCOc2cc(=O)n(C)cc2-c2cc(NS(=O)(=O)CC)ccc2Oc2ccc(Cl)cc2C1` [Example B-15, ethyl ({11-chloro-17-[(ethylsulfonyl)amino]-2-methyl-3-oxo-2,3,6,7-tetrahydrodibenzo[f,i]pyrido[3,4-k][1,8,4]dioxazacyclododecin-8(9H)-yl}sulfonyl)carbamate], in assay [1] (Homo sapiens, MX1, MX-1 cells), the pEC50 is 6.82. Also, the pKi on BRD4 (BDI-BDII_K57-K550) is 9.00.
Regarding `Cn1cc2c(cc1=O)OCCNC(=O)c1cc(Cl)ccc1Oc1ccc(N)cc1-2` [Example B-3, 17-amino-11-chloro-2-methyl-7,8-dihydrodibenzo[f,i]pyrido[3,4-k][1,8,4]dioxazacyclododecine-3,9(2H,6H)-dione], the pEC50 in assay [1] (Homo sapiens, MX1, MX-1 cells) is less than 6.00. Besides, the pKi on BRD4 (BDI-BDII_K57-K550) was 6.76.
Consider `CCS(=O)(=O)Nc1ccc2c(c1)-c1cn(C)c(=O)cc1OCCN(CCC(F)(F)F)Cc1cc(Cl)ccc1O2` [Example B-13, N-[11-chloro-2-methyl-3-oxo-8-(3,3,3-trifluoropropyl)-2,3,6,7,8,9-hexahydrodibenzo[f,i]pyrido[3,4-k][1,8,4]dioxazacyclododecin-17-yl]ethanesulfonamide], for which, in assay [1] (Homo sapiens, MX1, MX-1 cells), the pEC50 is 7.77. Moreover, at BRD4 (BDI-BDII_K57-K550), the negative-log Ki (pKi) was 8.65.
On the same counts, the results for `CCS(=O)(=O)Nc1ccc2c(c1)-c1cn(C)c(=O)cc1OCCCCc1ccncc1O2` [Example A-26, N-(2-methyl-3-oxo-2,3,6,7,8,9-hexahydrobenzo[4,5][1,6]dioxacyclododecino[3,2-c:7,8-c′]dipyridin-17-yl)ethanesulfonamide] are 7.83 and 8.70.
`CCS(=O)(=O)Nc1ccc2c(c1)-c1cn(C)c(=O)cc1OCC/C=C/c1cc(Cl)ccc1O2` [Example A-18, (E)-N-(11-chloro-2-methyl-3-oxo-2,3,6,7-tetrahydrodibenzo[4,5:7,8][1,6]dioxacyclododecino[3,2-c]pyridin-17-yl)ethanesulfonamide]: the pEC50 in assay [1] (Homo sapiens, MX1, MX-1 cells) is 8.05. Also, the pKi at BRD4 (BDI-BDII_K57-K550) was 8.39.
Regarding `CCS(=O)(=O)c1ccc2c(c1)-c1cn(C)c(=O)cc1OCCCCc1ccc(F)cc1O2` [Example A-23, 17-(ethylsulfonyl)-12-fluoro-2-methyl-6,7,8,9-tetrahydrodibenzo[4,5:7,8][1,6]dioxacyclododecino[3,2-c]pyridin-3(2H)-one], in assay [1] (Homo sapiens, MX1, MX-1 cells), the pEC50 is 8.10. Besides, the pKi at BRD4 (BDI-BDII_K57-K550) is 8.90.
For `CCOC(=O)c1ccc2c(c1)-c1cn(C)c(=O)cc1OCCOCc1cc(Cl)ccc1O2` [Example B-17c, ethyl 11-chloro-2-methyl-3-oxo-3,6,7,9-tetrahydro-2H-dibenzo[6,7:9,10][1,4,8]trioxacyclododecino[11,12-c]pyridine-17-carboxylate], in that order: 8.17 and 7.97.
With `Cn1cc2c(cc1=O)OCCCCc1cc(Cl)ccc1Oc1ncc(CS(C)(=O)=O)cc1-2` [Example A-40, 11-chloro-2-methyl-17-((methylsulfonyl)methyl)-6,7,8,9-tetrahydrobenzo[11,12][1,6]dioxacyclododecino[2,3-b:4,5-c′]dipyridin-3(2H)-one], the pEC50 in assay [1] (Homo sapiens, MX1, MX-1 cells) was 7.63. Moreover, the negative logarithm of the Ki (pKi) at BRD4 (BDI-BDII_K57-K550) was 8.22.
For the compound `CCS(=O)(=O)Nc1ccc2c(c1)-c1cn(C)c(=O)cc1OCCN(C1CCC1)Cc1cc(Cl)ccc1O2` [Example B-14, N-(11-chloro-8-cyclobutyl-2-methyl-3-oxo-2,3,6,7,8,9-hexahydrodibenzo[f,i]pyrido[3,4-k][1,8,4]dioxazacyclododecin-17-yl)ethanesulfonamide], the pEC50 in assay [1] (Homo sapiens, MX1, MX-1 cells) was 8.23. The pKi on BRD4 (BDI-BDII_K57-K550) was 8.67.
With `CCS(=O)(=O)c1ccc2c(c1)-c1cn(C)c(=O)cc1OCCCCc1ccc(Cl)cc1O2` [Example A-25, 12-chloro-17-(ethylsulfonyl)-2-methyl-6,7,8,9-tetrahydrodibenzo[4,5:7,8][1,6]dioxacyclododecino[3,2-c]pyridin-3(2H)-one], in assay [1] (Homo sapiens, MX1, MX-1 cells), the pEC50 was 7.97. In addition, at BRD4 (BDI-BDII_K57-K550), the pKi is 8.89.
On the same counts, the results for `CCS(=O)(=O)Nc1ccc2c(c1)-c1cn(C)c(=O)cc1OCCN(S(C)(=O)=O)Cc1cc(Cl)ccc1O2` [Example B-6, N-[11-chloro-2-methyl-8-(methylsulfonyl)-3-oxo-2,3,6,7,8,9-hexahydrodibenzo[f,i]pyrido[3,4-k][1,8,4]dioxazacyclododecin-17-yl]ethanesulfonamide] are 7.77 and 8.80.
Take `CCS(=O)(=O)Nc1ccc2c(c1)-c1cn(C)c(=O)cc1OCCCCc1cc(Cl)cnc1O2` [Example A-41, N-(3-chloro-12-methyl-11-oxo-5,6,7,8,11,12-hexahydrobenzo[4,5][1,6]dioxacyclododecino[7,8-b:3,2-c′]dipyridin-15-yl)ethanesulfonamide]: the pEC50 in assay [1] (Homo sapiens, MX1, MX-1 cells) is 7.57. Further, the pKi on BRD4 (BDI-BDII_K57-K550) is 8.09.
`CCS(=O)(=O)c1ccc2c(c1)-c1nn(C)c(=O)cc1OCCCCc1cc(F)cc(F)c1O2` [Example A-57, 17-(ethylsulfonyl)-11,13-difluoro-2-methyl-6,7,8,9-tetrahydrodibenzo[4,5:7,8][1,6]dioxacyclododecino[3,2-c]pyridazin-3(2H)-one]: the pEC50 in assay [1] (Homo sapiens, MX1, MX-1 cells) is 7.27. In addition, at BRD4 (BDI-BDII_K57-K550), the pKi was 8.07.
On to `Cn1cc2c(cc1=O)OCCCCc1ccncc1Oc1ccc(N)cc1-2` [Example A-28, 17-amino-2-methyl-6,7,8,9-tetrahydrobenzo[4,5][1,6]dioxacyclododecino[3,2-c:7,8-c′]dipyridin-3(2H)-one], for which, in assay [1] (Homo sapiens, MX1, MX-1 cells), the pEC50 is less than 6.00. The pKi on BRD4 (BDI-BDII_K57-K550) was 7.07.
For `CCS(=O)(=O)Nc1ccc2c(c1)-c1cn(C)c(=O)cc1OCCN(C(C)=O)Cc1cc(Cl)ccc1O2` [Example B-7, N-(8-acetyl-11-chloro-2-methyl-3-oxo-2,3,6,7,8,9-hexahydrodibenzo[f,i]pyrido[3,4-k][1,8,4]dioxazacyclododecin-17-yl)ethanesulfonamide], in assay [1] (Homo sapiens, MX1, MX-1 cells), the pEC50 is 7.34. The pKi at BRD4 (BDI-BDII_K57-K550) is 8.79.
`CCS(=O)(=O)Nc1cnc2c(c1)-c1cn(C)c(=O)cc1OCCCCc1cc(F)cc(F)c1O2` [Example A-35, N-(11,13-difluoro-2-methyl-3-oxo-2,3,6,7,8,9-hexahydrobenzo[11,12][1,6]dioxacyclododecino[2,3-b:4,5-c′]dipyridin-17-yl)ethanesulfonamide]: in assay [1] (Homo sapiens, MX1, MX-1 cells), the pEC50 was 8.38. The pKi at BRD4 (BDI-BDII_K57-K550) was 9.17.
As to `Cn1cc2c(cc1=O)OCCCCc1cc(C#N)ccc1Oc1ccc(NS(C)(=O)=O)cc1-2` [Example A-47, N-(11-cyano-2-methyl-3-oxo-2,3,6,7,8,9-hexahydrodibenzo[4,5:7,8][1,6]dioxacyclododecino[3,2-c]pyridin-17-yl)methanesulfonamide], the pEC50 in assay [1] (Homo sapiens, MX1, MX-1 cells) was 7.61. The pKi at BRD4 (BDI-BDII_K57-K550) was 8.43.
As for `CCS(=O)(=O)Nc1ccc2c(c1)-c1nn(C)c(=O)cc1OCCCCc1cc(C#N)ccc1O2` [Example A-56, N-(11-cyano-2-methyl-3-oxo-2,3,6,7,8,9-hexahydrodibenzo[4,5:7,8][1,6]dioxacyclododecino[3,2-c]pyridazin-17-yl)ethanesulfonamide], the pEC50 in assay [1] (Homo sapiens, MX1, MX-1 cells) is 7.77. For the same compound, the pKi on BRD4 (BDI-BDII_K57-K550) is 8.40.
On to `CCS(=O)(=O)Nc1ccc2c(c1)-c1cn(C)c(=O)cc1OCCCCc1cc(F)c(F)cc1O2` [Example A-48, N-(11,12-difluoro-2-methyl-3-oxo-2,3,6,7,8,9-hexahydrodibenzo[4,5:7,8][1,6]dioxacyclododecino[3,2-c]pyridin-17-yl)ethanesulfonamide], for which the pEC50 in assay [1] (Homo sapiens, MX1, MX-1 cells) is 8.37. Also, the pKi at BRD4 (BDI-BDII_K57-K550) is 8.88.
Consider `CCS(=O)(=O)Nc1ccc2c(c1)-c1cn(C)c(=O)cc1OCCC/C=C/c1cc(Cl)ccc1O2` [Example A-16, (E)-N-(12-chloro-2-methyl-3-oxo-3,6,7,8-tetrahydro-2H-dibenzo[4,5:7,8][1,6]dioxacyclotridecino[3,2-c]pyridin-18-yl)ethanesulfonamide], for which the pEC50 in assay [1] (Homo sapiens, MX1, MX-1 cells) is 7.82. In addition, the pKi at BRD4 (BDI-BDII_K57-K550) is 8.78.
Regarding `CCS(=O)(=O)c1ccc2c(c1)-c1cn(C)c(=O)cc1OCCCCc1ccncc1O2` [Example A-42, 17-(ethylsulfonyl)-2-methyl-6,7,8,9-tetrahydrobenzo[4,5][1,6]dioxacyclododecino[3,2-c:7,8-c′]dipyridin-3(2H)-one], in assay [1] (Homo sapiens, MX1, MX-1 cells), the pEC50 was 7.99. The pKi on BRD4 (BDI-BDII_K57-K550) is 9.07.
For the compound `COC(=O)c1cnc2c(c1)-c1cn(C)c(=O)cc1OCCCCc1cc(Cl)ccc1O2` [Example A-31, methyl 11-chloro-2-methyl-3-oxo-2,3,6,7,8,9-hexahydrobenzo[11,12][1,6]dioxacyclododecino[2,3-b:4,5-c′]dipyridine-17-carboxylate], the pEC50 in assay [1] (Homo sapiens, MX1, MX-1 cells) was 6.52. Also, the pKi on BRD4 (BDI-BDII_K57-K550) was 7.61.
In the case of `CCS(=O)(=O)c1ccc2c(c1)-c1cn(C)c(=O)cc1OCCc1ccccc1O2` [Example A-2, 3-(ethylsulfonyl)-6-methyl-10,11-dihydrodibenzo[4,5:7,8][1,6]dioxecino[3,2-c]pyridin-7(6H)-one], the pEC50 in assay [1] (MX-1 cells) was 6.15. The pKi on BRD4 (BDI-BDII_K57-K550) was 6.63.
